# Measured values from US20240374646A1, “COMPOSITION FOR INHIBITING INFLAMMATION OR AGING OF STEM CELLS, AND METHOD FOR INHIBITING INFLAMMATION OR AGING BY USING SAME” (MITOIMMUNE THERAPEUTICS INC., priority 2021, published 2024).
# Tests used:
# IL-6 = test: Real-time qPCR, SASP factor IL-6; format: cell-based, human; settings: vs MSCs exposed to TNF-α/IFN-γ; FIG. 4B
# Method: (§1) Real-time qPCR was performed using an Easy-Spin Total RNA Kit (iNtRON, Seongnam, Korea) to extract total RNA from hPD-MSCs and RNA concentration was adjusted to 100 ng/μL using a microplate spectrophotometer (Epoch™ Microplate Spectrophotometer, BioTek, Winooski, VT, USA), and the extracted RNA was reverse transcribed into cDNA using RT PreMix (dT20) (Bioneer, Seoul, Korea) using a SimpliAmp Thermal Cycler (Life Technologies, Carlsbad, CA, USA). Real-time qPCR was performed using a real-time PCR machine (CFX Connect, Bio-Rad, Hercules, CA, USA), SYBR Green Supermix (Bio-Rad) and the relevant primers, and all experiments were performed in triplicate for statistical analysis.
# (§2) In the present experiment, the expression of IL-1β, IL-6, and monocyte chemotactic protein-1 (MCP-1), which are SASP-associated factors of the untreated MSC control, the TNF-α/IFN-γ-exposed MSC control (TI), and the experimental group treated with the example compound in the TNF-α/IFN-γ-exposed MSC control was analyzed by real-time qPCR. As the real-time qPCR analysis method, the same method described in Experimental Example 1-2 above was used, and the results are shown in FIGS. 4A to 4C.
# [1] = system: TNF-α/IFN-γ-exposed hPD-MSCs; test: Reactive oxygen species (ROS) assay, H2DCFDA; format: cell-based, human; settings: TNF-α/IFN-γ-exposed MSC control (TI) treated with compound; FIG. 3F
# Method: To investigate ROS levels, a total of 5×10^3 hPD-MSCs were seeded into each well of a 96-well black-microplate (SPL, 33196) and cultured for 24 hours, and then the cells were washed and cultured in a pre-warmed Hanks' balanced salt solution (14025092, ThermoFisher) containing 50 μM H2DCFDA (D399; ThermoFisher) for 30 minutes. Fluorescence intensity at a wavelength of 555 nm was measured at a wavelength of 488 nm using a Multi-Mode MicroPlate Reader (FlexStation 3, Molecular Devices, Silicon Valley, CA, USA), and the results are shown in FIG. 3F.
# [2] = system: TNF-α/IFN-γ-exposed hPD-MSCs; test: Cell viability at each concentration of the example compound; format: cell-based; settings: TNF-α/IFN-γ exposure, different concentrations of compound; FIG. 1D
# Method: (§3) Human placenta-derived mesenchymal stem cells (hPD-MSCs) were harvested from inside the placental chorion, and the harvested cells were cultured in an alpha-Minimum Essential medium (Cytiva, Marlborough, MA, USA) supplemented with 10% fetal bovine serum (ThermoFisher, Waltham, MA, USA), 1% penicillin/streptomycin (ThermoFisher, Waltham, MA, USA), 25 ng/mL human fibroblast growth factor-4 (Peprotech, Rocky Hill, NJ, USA) and 1 μg/mL heparin (Merck, San Francisco, CA, USA). A total of 1×10^5 hPD-MSCs were seeded in a cell culture dish (90×20 mm) (SPL, Pocheon, Korea) and cultured at 37° C. in an incubator containing 5% CO2. The cells were subcultured every 4 days until reaching 70 to 80% confluency. Expanded cells were obtained at passage 12 or 13. During subculture, viable cells were stained with Trypan blue (Merck) and the number of cells was manually counted.
# In a passage for sample extraction, hPD-MSCs were cultured for 24 hours in a medium with or without an example compound (5-[(1,1-dioxido-4-thiomorpholinyl)methyl]-2-phenyl-N-(tetrahydro-2H-pyran-4-yl)-1H-indole-7-amine) while including 2.5 ng/mL TNF-α (Peprotech) and 25 ng/mL IFN-γ (Peprotech).
# Meanwhile, upon exposure to TNF-α/IFN-γ and treatment with the example compound, cell viability was evaluated, and the results are shown in FIG. 1D.
# IL-1β = test: Real-time qPCR, SASP factor IL-1β; format: cell-based, human; settings: vs MSCs exposed to TNF-α/IFN-γ; FIG. 4A
# Method: as §1, §2
# [3] = system: TNF-α/IFN-γ-exposed hPD-MSCs; test: MSC morphology: bright-field and phalloidin/Hoechst fluorescence images; format: cell-based, human; settings: hPD-MSCs with 2.5 ng/mL TNF-α and 25 ng/mL IFN-γ, 24 hours; FIG. 1A
# Method: as §3, with “counted. […] The morphology of MSCs was confirmed by bright-field images and fluorescence microscope images, stained cells were identified by phalloidin, which specifically labels the F-actin structure, and Hoechst 33342, which labels nuclei, in the fluorescence image, and the results are shown in FIG. 1A. […]” for “counted.”
# [4] = system: dynamin-related protein 1 (DRP1); test: Real-time qPCR, mitochondrial dynamics gene DRP1; format: cell-based, human; settings: vs TNF-α/IFN-γ-exposed MSC control (TI); FIG. 2B
# Method: as §1
# To investigate mitochondrial dynamics, real-time qPCR was performed to analyze the expression of dynamin-related protein 1 (DRP1), which is a mitochondrial division-related gene, and mitofusion 1 (MFN1) and mitofusion 2 (MFN2), which are […] mitochondrial membrane fusion-related genes. As the real-time qPCR analysis method, the same method described in Experimental Example 1-2 above was used, and the results are shown in FIG. 2B.
compound,measurement,setting,value
"O=S1(=O)CCN(Cc2cc(NC3CCOCC3)c3[nH]c(-c4ccccc4)cc3c2)CC1 [example compound, 5-[(1,1-dioxido-4-thiomorpholinyl)methyl]-2-phenyl-N-(tetrahydro-2H-pyran-4-yl)-1H-indole-7-amine]",IL-6 expression level,IL-6,decreased
same,ROS value,[1],reduced to the level of the untreated MSC control
same,cell viability,[2],high
same,decrease of IL-1β expression,IL-1β,about 55%
same,abnormal morphology and disorganized microfilaments (F-actin cytoskeletal structure),[3],remarkably improved to levels similar to those of the untreated MSC control
same,DRP1 expression level,[4],slightly reduced
